Each block holds one compound with its values, some of them ahead of it.
Columns and labels:
[1] = Ex vivo study in rabbit plasma: plasma concentration calculated from FVIIa activity; details: 3 mg/kg IV bolus, 1-60 min, n=3, calculated from FVIIa activity and IC50 standard curve
Method: (§1) The FVIIa activity was measured in the plasma collected from rabbits that received 2-[6-(3-Carbamimidoyl-phenoxy)-3,5-difluoro-4-(1-methyl-3-phenyl-propylamino)-pyridin-2-yloxy]-5-dimethylamino-4-methyl-benzoic acid, IV bolus, 3 mg/kg (n=3). Blood samples were collected before and 1, 5, 10, 30, and 60 minutes after the onset of administration, followed by plasma preparation. 2-[6-(3-Carbamimidoyl-phenoxy)-3,5-difluoro-4-(1-methyl-3-phenyl-propylamino)-pyridin-2-yloxy]-5-dimethylamino-4-methyl-benzoic acid in plasma was extracted using 4 volumes of CH3CN to 1 volume of plasma. Precipitated proteins were removed by centrifugation at 2000 g for 5 minutes. Solvent was decanted into small glass tubes and dried at 37° C. under a stream of nitrogen, then reconstituted in Tris-buffer. The method of FVIIa activity assay is the same as in vitro study. FVIIa activity was determined by measuring the rate of absorbance change at 405 nm due to cleavage of the spectrozyme FVIIa (0.5 mM) by FVIIa/TF complex. Plasma concentrations of 2-[6-(3-Carbamimidoyl-phenoxy)-3,5-difluoro-4-(1-methyl-3-phenyl-propylamino)-pyridin-2-yloxy]-5-dimethylamino-4-methyl-benzo acid were determined by using a standards inhibition curve that were generated from rabbit plasma containing known amount of inhibitor and processed identically to test samples. […]

[2] = target: T1, FVIIa (Homo sapiens, UniProt P08709); test: Ex vivo FVIIa activity assay in plasma from treated rabbits, two plasma concentrations; details: rabbit, 3 mg/kg IV bolus
T1 construct: purchased American Diagnostica, Greenwich, Conn
T1 sequence (P13726 33-295 partner, one chain of several): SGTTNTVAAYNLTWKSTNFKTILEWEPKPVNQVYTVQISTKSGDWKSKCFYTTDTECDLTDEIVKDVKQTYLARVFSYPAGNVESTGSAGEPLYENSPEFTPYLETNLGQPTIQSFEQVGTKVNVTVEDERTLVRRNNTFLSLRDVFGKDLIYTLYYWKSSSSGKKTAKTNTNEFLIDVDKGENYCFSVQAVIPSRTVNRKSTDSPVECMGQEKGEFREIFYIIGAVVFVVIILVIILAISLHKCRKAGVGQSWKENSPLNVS
Method: as §1

[3] = target: T2, FVIIa/TF complex (Homo sapiens, UniProt P08709); test: In vitro one-stage FVIIa activity assay in human plasma (Spectrozyme FVIIa cleavage); type: biochemical; details: for Effect on FVIIa activity in human plasma: 0.625% pooled human plasma, 10 nM FVIIa, 15 nM TF, vs own control
T2 construct: purchased American Diagnostica, Greenwich, Conn
T2 sequence (P13726 33-295 partner, one chain of several): as above
Method: The proteolytic activity of FVIIa was measured by cleavage of paranitroanilide (pNA) substrate (Spectrozyme FVIIa) in a 96-well microtiter plate.
A series of samples containing enzyme inhibitors (0-300 μM) were added to well in a 96-well microtiter plate containing Tris-buffer ([…] Tris, pH 7.4, 100 mM NaCl), 0.625% plasma, 0.1% BSA. After addition of FVIIa (10 nM in final concentration), the plate was incubated for 15 minutes at 37° C. Then the TF (15 nM in final concentration) and CaCl2 (5 mM in final concentration) were added, and the plate was incubated for additional 15 minutes at 37° C. again. After incubation, the substrate (Spectrozyme FVIIa) was added at a final concentration of 0.5 mM to result in a final volume of 200 μL/well. The rate of change in absorbance at 405 nm was monitored by a Softmax plate reader (Molecular Devices).
Above four inhibitors were evaluated in pooled human plasma for their inhibitory effects on FVIIa activity. Effects of FVIIai, 2-[6-(3-Carbamimidoyl-phenoxy)-3,5-difluoro-4-(1-methyl-3-phenyl-propylamino)-pyridin-2-yloxy]-5-dimethylamino-4-methyl-benzoic acid, ({2-(5-Carbamimidoyl-2-hydroxy-phenoxy)-3,5-difluoro-6-[3-(1-methyl-4,5-dihydro-1H-imidazol-2-yl)-phenoxy]-pyridin-4-yl}-methyl-amino)-acetic acid, and (S)-4-[3-(cyclopentylmethylamino)-2-[(2-naphthalenylsulfony)amino]-3-oxopropyl]benzenecarboximidic acid hydrazide on FVIIa activity were compared with their own control group. The activity of FVIIa was obtained with a final concentration of 0.625% human plasma, 10 nM FVIIa, 15 nM TF, 5 mM CaCl2, and 0.5 mM SPZFVIIa.

[4] = target: T3, human FVIIa (Homo sapiens, UniProt P08709); test: Inhibition of human FVIIa (stated potency); type: biochemical; details: read-out: IC50 against human FVIIa
T3 sequence (P08709 213-466 limits assumed): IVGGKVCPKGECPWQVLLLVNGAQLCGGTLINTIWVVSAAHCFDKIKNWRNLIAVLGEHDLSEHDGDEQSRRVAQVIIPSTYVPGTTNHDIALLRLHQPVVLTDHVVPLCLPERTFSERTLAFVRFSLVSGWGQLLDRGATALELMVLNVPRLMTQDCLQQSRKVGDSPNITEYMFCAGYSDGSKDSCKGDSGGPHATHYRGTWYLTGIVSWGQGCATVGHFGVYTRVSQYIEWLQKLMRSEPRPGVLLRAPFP
T3 sequence (P08709 61-212 partner limits assumed): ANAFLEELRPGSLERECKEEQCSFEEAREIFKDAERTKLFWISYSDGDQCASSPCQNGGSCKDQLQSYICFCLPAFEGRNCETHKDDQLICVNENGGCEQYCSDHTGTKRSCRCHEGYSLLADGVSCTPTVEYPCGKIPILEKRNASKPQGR

[5] = Plasma level in hypercholesterolemic rabbits calculated from FVIIa activity; type: in vivo, rabbit; details: IV bolus 0.3 and 1.0 mg/kg, 3 minutes after administration
Method: (§2) The FVIIa activity was measured in plasma collected from hypercholesterolemic rabbits in a balloon-induced injury model of thrombosis. The rabbits received two doses of 7-[(R)-3-(3-Amino-benzyl)-4-(4-amino-phenyl)-4-methyl-2,5-dioxo-imidazolidin-1-ylmethyl]-naphthalene-2-carboxamidine, IV bolus, 0.3 mg/kg (n=5) and 1.0 mg/kg (n=6). Blood samples were collected before and 3 minutes after administration, followed by plasma preparation. Plasma samples were extracted using CH3CN and reconstituted in Tris-buffer. The protocol is the same as ex vivo study of 2-[6-(3-Carbamimidoyl-phenoxy)-3,5-difluoro-4-(1-methyl-3-phenyl-propylamino)-pyridin-2-yloxy]-5-dimethylamino-4-methyl-benzoic acid. The plasma levels of 7-[(R)-3-(3-Amino-benzyl)-4-(4-amino-phenyl)-4-methyl-2,5-dioxo-imidazolidin-1-ylmethyl]-naphthalene-2-carboxamidine were calculated based on the test plasma FVIIa activity and an IC50 standard curve. […]
(§3) The inhibitory effect and plasma concentration of 7-[(R)-3-(3-Amino-benzyl)-4-(4-amino-phenyl)-4-methyl-2,5-dioxo-imidazolidin-1-ylmethyl]-naphthalene-2-carboxamidine was determined in balloon-induced injury model of thrombosis in hypercholesterolemic rabbits. […] The inhibitory effect of 7-[(R)-3-(3-Amino-benzyl)-4-(4-amino-phenyl)-4-methyl-2,5-dioxo-imidazolidin-1-ylmethyl]-naphthalene-2-carboxamidine was measured by FVIIa activity assay. […]

[6] = target: T1, FVIIa; test: Ex vivo FVIIa activity assay in plasma of hypercholesterolemic rabbits (balloon-induced injury model of thrombosis); set-up: species or system rabbit; details: IV bolus 0.3 and 1.0 mg/kg, 3 minutes after administration
Method: as §2, §3

[7] = target: thrombin (Homo sapiens, UniProt P00734); test: Inhibition of thrombin (stated potency); type: biochemical

- Ex vivo inhibitory effect on FVIIa activity with 1.25% vs 0.625% plasma in the assay [2]: same inhibitory effect
- Effect on FVIIa activity in human plasma ([3]; 300 nM): significantly decreased FVIIa activity
- Inhibition on FVIIa activity in human plasma over a series of concentrations ([3]; human plasma, series of concentrations): dose-dependent inhibition
- IC50 [4]: 15 nM
SMILES: Cc1cc(Oc2nc(Oc3cccc(C(=N)N)c3)c(F)c(NC(C)CCc3ccccc3)c2F)c(C(=O)O)cc1N(C)C (centres unmarked) [2-[6-(3-Carbamimidoyl-phenoxy)-3,5-difluoro-4-(1-methyl-3-phenyl-propylamino)-pyridin-2-yloxy]-5-dimethylamino-4-methyl-benzoic acid]
- Plasma concentration after IV bolus administration [1]: time-dependent change in plasma concentration

- Plasma level [5]: dose-dependent changes
SMILES: C[C@@]1(c2ccc(N)cc2)C(=O)N(Cc2ccc3ccc(C(=N)N)cc3c2)C(=O)N1Cc1cccc(N)c1 [7-[(R)-3-(3-Amino-benzyl)-4-(4-amino-phenyl)-4-methyl-2,5-dioxo-imidazolidin-1-ylmethyl]-naphthalene-2 carboxamidine]
- Ex vivo inhibitory effect on FVIIa activity [6]: dose-dependent changes in inhibitory effect

- Effect on FVIIa activity in human plasma ([3]; 100 nM): did not alter FVIIa activity
- IC50 ([7]; read-out: IC50 against thrombin): 2 nM
- Ki ([7]; read-out: Ki against thrombin): 0.38 nM
SMILES: N=C(NN)c1ccc(C[C@H](NS(=O)(=O)c2ccc3ccccc3c2)C(=O)NCC2CCCC2)cc1 [(S)-4-[3-(cyclopentylmethylamino)-2-[(2-naphthalenylsulfonyl)amino]-3-oxoprpoyl]-benzenecarboximidic acid hydrazide]

- Effect on FVIIa activity in human plasma ([3]; 100 nM): did not alter FVIIa activity
SMILES: CN1CCN=C1c1cccc(Oc2nc(Oc3cc(C(=N)N)ccc3O)c(F)c(N(C)CC(=O)O)c2F)c1 [({2-(5-Carbamimidoyl-2-hydroxy-phenoxy)-3,5-difluoro-6-[3-(1-methyl-4,5-dihydro-1H-imidazol-2-yl)-phenoxy]-pyridin-4-yl}-methyl-amino)-acetic acid]

— patent US6773896B2, “Method for direct measurement of coagulation factor VIIa activity in plasma” (Warner-Lambert Company, priority 2001, dated 2004)
